Assay results taken from article PMC3942006, “Ruthenium-Nitrosyl Complexes with Glycine, L-Alanine, L-Valine, L-Proline, D-Proline, L-Serine, L-Threonine, and L-Tyrosine: Synthesis, X-ray Diffraction Structures, Spectroscopic and Electrochemical Properties, and Antiproliferative Activity” (Inorganic Chemistry, 2014).

Experiments:
[1] = system: SW480 (human adenocarcinoma of the colon) cells; experiment: MTT assay, antiproliferative activity in SW480 cells; type: cell-based; settings: for IC50: MTT assay, exposure time 96 h, means ± SD; for more active than the respective osmium analogue: SW480 cells
From the text: (§1) CH1 cells (human ovarian carcinoma) were a generous gift from Lloyd R. Kelland, CRC Centre for Cancer Therapeutics, Institute of Cancer Research, Sutton, UK. SW480 (human adenocarcinoma of the colon) and A549 (human nonsmall cell lung cancer) cells were kindly provided by Brigitte Marian (Institute of Cancer Research, Department of Medicine I, Medical University of Vienna, Austria). All cell culture media and reagents were purchased from Sigma-Aldrich Austria and plastic ware from Starlab Germany. Cells were grown in 75 cm^2 culture flasks as adherent monolayer cultures in minimum essential medium (MEM) supplemented with 10% heat-inactivated fetal calf serum, 1 mM sodium pyruvate, 4 mM L-glutamine, and 1% nonessential amino acids (from 100× ready-to-use stock). Cultures were maintained at 310 K in humidified atmosphere containing 95% air and 5% CO2.
(§2) Cytotoxic effects of the test compounds were determined by means of a colorimetric microculture assay [MTT assay; MTT = 3-(4,5-dimethyl-2-thiazolyl)-2,5-diphenyl-2H-tetrazolium bromide] as described previously.[13] Cells were harvested from culture flasks by trypsinization and seeded by using a pipetting system (Biotek Precision XS Microplate Sample Processor) in densities of 1 × 10^3 (CH1), 2 × 10^3 (SW480), and 3 × 10^3 (A549) in 100 μL/well aliquots in 96-well microculture plates. For 24 h, cells were allowed to settle and resume proliferation. […] After 96 h of drug exposure, the medium was replaced with 100 μL/well of a 1:7 MTT/RPMI 1640 mixture (MTT solution, 5 mg/mL of MTT reagent in phosphate-buffered saline; RPMI 1640 medium, supplemented with 10% heat-inactivated fetal bovine serum and 4 mM L-glutamine), and plates were incubated for further 4 h at 310 K. Subsequently, the solution was removed from all wells, and the formazan crystals formed by viable cells were dissolved in 150 μL of DMSO per well. Optical densities at 550 nm were measured with a microplate reader (Biotek ELx808) by using a reference wavelength of 690 nm to correct for unspecific absorption. The quantity of viable cells was expressed relative to untreated controls, and 50% inhibitory concentrations (IC50) were calculated from concentration-effect curves by interpolation. Evaluation is based on means from three independent experiments.

[2] = log D7.4 by shake-flask method, n-octanol/buffered aqueous solution; type: physicochemical; settings: for log D7.4 in the presence of 0.1 M KCl: n-octanol/0.02 M HEPES pH 7.4, 0.1 M KCl, T = 298.0 K; for log D7.4: n-octanol/0.02 M HEPES pH 7.4, T = 298.0 K
Description: ^1H NMR spectra were recorded on a Bruker Avance III instrument (Ultrashiled Magnet) at 500.13 MHz at room temperature. DMSO-d6 was used as a solvent. Standard pulse programs were applied. ^1H chemical shifts were measured relative to the residual solvent peaks. […] Complex concentration was 1.0 mM. Watergate water suppression program and 4,4-dimethyl-4-silapentane-1-sulfonic acid (DSS) internal standard were used. ATR-IR spectra were measured on a Bruker Vertex spectrometer. D7.4 values were determined by the traditional shake-flask method in n-octanol/buffered aqueous solution at pH 7.4 (N-(2-hydroxyethyl)piperazine-N′-ethanesulfonic acid (HEPES) buffer) and 298.0 ± 0.2 K, as described previously.[25] In the case of the complexes of L-Ala (2) and L-Val (3) the D7.4 values were determined in the presence of 0.1 M KCl as well. Two parallel experiments were performed for each sample. The complexes were dissolved at 0.3 mM in the n-octanol presaturated aqueous solution of the buffer (0.02 M). The aqueous solutions and n-octanol with 1:1 phase ratio were gently mixed with 360° vertical rotation for 3 h to avoid emulsion formation, and the mixtures were centrifuged at 5000 rpm for 3 min by a temperature-controlled centrifuge at 298 K. After separation, UV spectra of the complexes in the aqueous phase were compared to those of the original aqueous solutions, and D7.4 values were calculated as the mean of [absorbance (original solution)/absorbance (aqueous phase after separation) – 1] obtained in the region of λ ≈ (250–290 nm). Circular dichroism (CD) and UV–vis spectra under physiological conditions (0.02 M phosphate buffer, pH 7.40 with 0.1 M KCl) were recorded on a Jasco J-815 spectrometer in an optical cell of 2 cm path length (l) in the wavelength range from 220 to 600 nm. The analytical concentration for the CD measurement of the complexes was 400 μM in aqueous solution. CD data are given as the differences in molar absorptivities between left and right circularly polarized light, based on the concentration of the […] (Δε = ΔA/l/ccomplex). The concentrations for the UV–vis measurements amounted to 403 (1), 401 (4), 401 (5), 400 (8), 399 (3), 401 (2), 403 (7), and 401 (6) μM.
The log D7.4 values of the complexes were determined by the traditional shake-flask method in n-octanol/buffered aqueous solution at pH 7.4 by analysis of the UV–vis spectra of the aqueous phases before and after separation (Supporting Information, Figure S10 and Table 5).

[3] = system: A549 (human nonsmall cell lung cancer) cells; experiment: MTT assay, antiproliferative activity in A549 cells; type: cell-based; settings: exposure time 96 h, means ± SD
From the text: as §1, §2

[4] = system: CH1 cells (human ovarian carcinoma); experiment: MTT assay, antiproliferative activity in CH1 cells; type: cell-based; settings: for IC50: MTT assay, exposure time 96 h, means ± SD; for more active than the respective osmium analogue: CH1 cells
From the text: as §1, §2

[5] = Co-incubation with sodium ascorbate followed by ESI mass spectrometry; type: physicochemical; settings: 4 equiv sodium ascorbate (200 μM), 310 K, over 24 h
Description: (§3) The stability of four compounds, namely 1, 4, 5, and 8, in aqueous solution and in the presence of 4 equiv of sodium ascorbate was investigated using an AmaZon SL ESI ion trap mass spectrometer (Bruker Daltonics GmbH, Bremen, Germany). For this purpose, the compounds were diluted from 400 μM stock solution (1% DMSO) to 50 μM in water and in the presence of 200 μM sodium ascorbate. The solutions were incubated at 310 K in the dark, and samples were measured after 0.5, 1, 2, 6, and 24 h after a second dilution step to 5 μM of the metal compound. The samples were introduced by direct infusion into the mass spectrometer at 280 μL/h, and mass spectra were recorded over 0.5 min and averaged. Typical experimental conditions were as follows: high voltage (HV) capillary ±4.5 kV, dry temp 180 °C, nebulizer 8 psi, dry gas 6 L/min, radio frequency (RF) level 77%, trap drive 57.6, average accumulation time 25 ms (negative ion mode) and 120 μs (positive ion mode). […]
(§4) The aqueous stability of compounds 1, 4, 5, and 8 was also confirmed by ESI mass spectrometry. […] Dissolution of 1 in D2O leads to the change of the labile −NH2 to −ND2, and the resulting compound [RuCl3(N,N-d2-Gly−H)(NO)] ^– (m/z 314.74 compared to m/z 312.72 of 1) was analyzed. […] Note that related ruthenium-nitrosyl complexes with azole heterocycles reacted quantitatively with sodium ascorbate within several hours.[15]

[6] = Stability in aqueous solution by UV-vis spectroscopy; type: physicochemical; settings: pH 7.40, 0.02 M HEPES, 0.25 mM, 298.0 K, in the presence of 0.1 M KCl or in its absence
[7] = Hydrolytic stability by 1H NMR spectroscopy; type: physicochemical; settings: 10% D2O/H2O, pH = 5.86, compared with pH 7.4 buffer
Description: ^1H NMR spectra were recorded on a Bruker Avance III instrument (Ultrashiled Magnet) at 500.13 MHz at room temperature. DMSO-d6 was used as a solvent. Standard pulse programs were applied. ^1H chemical shifts were measured relative to the residual solvent peaks. […] Complex concentration was 1.0 mM. Watergate water suppression program and 4,4-dimethyl-4-silapentane-1-sulfonic acid (DSS) internal standard were used. ATR-IR spectra were measured on a Bruker Vertex spectrometer. D7.4 values were determined by the traditional shake-flask method in n-octanol/buffered aqueous solution at pH 7.4 (N-(2-hydroxyethyl)piperazine-N′-ethanesulfonic acid (HEPES) buffer) and 298.0 ± 0.2 K, as described previously.[25] In the case of the complexes of L-Ala (2) and L-Val (3) the D7.4 values were determined in the presence of 0.1 M KCl as well. […] The aqueous solutions and n-octanol with 1:1 phase ratio were gently mixed with 360° vertical rotation for 3 h to avoid emulsion formation, and the mixtures were centrifuged at 5000 rpm for 3 min by a temperature-controlled centrifuge at 298 K. After separation, UV spectra of the complexes in the aqueous phase were compared to those of the original aqueous solutions, and D7.4 values were calculated as the mean of [absorbance (original solution)/absorbance (aqueous phase after separation) – 1] obtained in the region of λ ≈ (250–290 nm). […]

[8] = Aqueous stability by ESI mass spectrometry; type: physicochemical; settings: 50 μM in water, 310 K, over 24 h
Description: as §3, §4

Molecule | IC50 [1] [µM] | log D7.4 in the presence of 0.1 M KCl [2] | log D7.4 [2] | IC50 [3] [µM] | IC50 [4] [µM] | ligand release on incubation with sodium ascorbate [5] | hydrolysis over 24 h (absorbance at 250 nm) [6] | hydrolytic stability: 1H NMR in nonbuffered medium [7] | aqueous stability, species in negative ion mode ESI mass spectra [8] | more active than the respective osmium analogue [1] [fold] | more active than the respective osmium analogue [4] [fold]
CCCC[N+](CCCC)(CCCC)CCCC.C[C@@H]1[NH2+][Ru-2]([Cl])([Cl])([Cl])([N]=O)[O]C1=O [complex 2, (nBu4N)[RuCl3(L-Ala–H)(NO)]] | 47 ± 3 | –1.47 ± 0.11 | –1.63 ± 0.08 | > 320 | 12 ± 2 |  |  |  |  |  | 
CCCC[N+](CCCC)(CCCC)CCCC.O=[N][Ru-2]1([Cl])([Cl])([Cl])[NH2+][C@@H](CO)C(=O)[O]1 [complex 6, (nBu4N)[RuCl3(L-Ser–H)(NO)]] | 63 ± 10 |  | –1.77 ± 0.12 | > 320 | 13 ± 2 |  |  |  |  |  | 
CCCC[N+](CCCC)(CCCC)CCCC.C[C@@H](O)[C@@H]1[NH2+][Ru-2]([Cl])([Cl])([Cl])([N]=O)[O]C1=O [complex 7, (nBu4N)[RuCl3(L-Thr–H)(NO)]] | 71 ± 15 |  | –1.75 ± 0.02 | > 320 | 23 ± 2 |  |  |  |  |  | 
CCCC[N+](CCCC)(CCCC)CCCC.O=[N][Ru-2]1([Cl])([Cl])([Cl])[NH2+][C@@H](Cc2ccc(O)cc2)C(=O)[O]1 [complex 8, (nBu4N)[RuCl3(L-Tyr–H)(NO)]] | 38 ± 12 |  |  | > 320 | 17 ± 3 | did not induce ligand release | negligible | showed the same NMR spectra | [RuCl3(AA–H)NO]^− as the major species |  | 
(nBu4N)[RuCl3(D-Pro–H)(NO)] [complex 5] |  |  |  |  |  |  |  |  |  | 14 | 11
(nBu4N)[RuCl3(L-Pro–H)(NO)] [complex 4] |  |  |  |  |  |  |  |  |  | 4.4 | 5.7
(nBu4N)[RuCl3(L-Val–H)(NO)] [complex 3] | 53 ± 2 | –1.31 ± 0.07 | –1.13 ± 0.02 | > 320 | 27 ± 3 |  |  |  |  |  | 
